{"source": "patent EP0359439A1", "about": "“Substituted pyridazinones” (ORION-YHTYMÄ OY, priority 1988, dated 1990)", "note": "Several values for one entry are separate records, joined by “and”; a condition that tells them apart may be missing. Equal entries are not always repeated.", "data": [{"molecular_target": "Canine Cardiac Phosphodiesterase III", "assay": "Inhibition of Canine Cardiac Phosphodiesterase III enzyme", "type": "biochemical", "conditions": "concentration showing 50% inhibition of Canine Cardiac Phosphodiesterase III enzyme; read-out: IC₅₀", "source_text": "In Table 5 the concentration of the compounds showing 50% inhibition of Canine Cardiac Phosphodiesterase III enzyme is given.", "values": [{"compound": "CC1(C)C(=O)Nc2cc3nc(-c4ccncc4)[nH]c3cc21", "note": "[BM 14.478, 5,7-Dihydro-7,7-dimethyl-2-(4-pyridinyl)-pyrrolo-(2,3-f)benzimidazol-6(1H)-one, reference compound]", "IC50": "940 nM"}, {"compound": "O=C1CCC(c2ccc(N=Cc3ccc(O)cc3O)cc2)=NN1", "note": "[Compound A, 6-[4-(2,4-Dihydroxyphenyl)methyleneaminophenyl]-4,5-dihydropyridazin-3(2H)one]", "IC50": "1700 nM"}, {"compound": "O=C1CCC(c2ccc(N=C(c3ccccc3)c3ccc(O)cc3O)cc2)=NN1", "note": "[Compound C]", "IC50": "19 nM"}, {"compound": "CC(=Nc1ccc(C2=NNC(=O)CC2C)cc1)c1ccc(O)cc1O", "note": "(stereo not drawn) [Compound D, 6-[4-(1-(2,4-Dihydroxyphenyl)ethylidene)aminophenyl]-4,5-dihydro-5-methylpyridazin-3(2H)one]", "IC50": "60 nM and 100 nM"}, {"compound": "CCC(=Nc1ccc(C2=NNC(=O)CC2)cc1)c1ccc(O)cc1O", "note": "[Compound E, 6-[4-(1-(2,4-Dihydroxyphenyl)propylidene)aminophenyl]-4,5-dihydropyridazin-3(2H)one]", "IC50": "390 nM"}, {"compound": "O=C1CCC(c2ccc(N=Cc3c(O)ccc4ccccc34)cc2)=NN1", "note": "[Compound F, 6-[4-(2-hydroxynaphtyl)methyleneaminophenyl]-4,5-dihydropyridazin-3(2H)one]", "IC50": "> 10000 nM"}, {"compound": "CC(=Nc1ccc(-c2ccc(=O)[nH]n2)cc1)c1ccc(O)cc1O", "note": "[Compound H, 6-[4-(1-(2,4-Dihydroxyphenyl)ethylidene)aminophenyl]pyridazin-3(2H)one]", "IC50": "140 nM"}, {"compound": "O=C1CCC(c2ccc(N=C(CCc3ccccc3)c3ccc(O)cc3O)cc2)=NN1", "note": "[Compound L, 6-[4-(1-(2,4-dihydroxyphenyl)-3-phenylpropylidene)aminophenyl]-4,5-dihydropyridazin-3(2H)one]", "IC50": "2 nM"}, {"compound": "COc1ccc(-c2nc3cc(C4=NNC(=O)CC4C)ccc3[nH]2)cc1", "note": "(stereo not drawn) [Pimobendan, 4,5-Dihydro-6-(2-(4-methoxyphenyl)-1H-benzimidazol-5-yl)-5-methyl-3(2H)-pyridazinone, reference compound]", "IC50": "2000 nM and 1500 nM"}]}]}
